# According to PubChem BioAssay AID1996:
# Conditions: buffer; pH 7.4; 200.0 µM
row,Compound,solubility kinetic
1,CCN(CC)c1ccc2c(O)cc(=O)oc2c1,> 35 µg/mL
2,N#CN=C(c1ccccc1)c1ccccc1,30.4 µg/mL
3,COc1cc(C(=O)NCc2ccc3c(c2)OCO3)c([N+](=O)[O-])cc1OC,38.3 µg/mL
4,COC(=O)c1ccccc1NC(=O)c1sc(Cl)nc1C,44 µg/mL
5,CC1CCCCC12NC(=O)N(CC(=O)OCC(=O)Nc1ccc(F)cc1[N+](=O)[O-])C2=O (stereo not drawn),7.5 µg/mL
6,COc1cc(N)c(Cl)cc1C(=O)OCC(=O)c1cccs1,4.2 µg/mL
7,CCCCOc1ccc(CC(=O)NO)cc1,> 33.5 µg/mL
8,O=S(=O)(NC1CCCCC1N1CCC(O)CC1)c1ccccc1 (stereo not drawn),> 50.8 µg/mL
9,Cc1cccc(NC(=O)c2ccc(S(=O)(=O)N3CCCC3)cc2)c1C,2 µg/mL
10,CCOc1ccccc1NC(=O)CN1CCCCCC1.Cl,32.9 µg/mL
11,CC1CCN(C(=O)COC(=O)c2cn(C)c3ccccc23)CC1,> 47.2 µg/mL
12,CCn1c(SCC(=O)N2CCCC2)nc2c(c1=O)SCC2,> 48.8 µg/mL
13,N#CC(C#N)=C/C=C(\Nc1ccc(Cl)cc1)c1ccc(Cl)cc1,> 51 µg/mL
14,CC(=O)Nc1ccc(CN2CCN(CC=C(C)C)C(CCO)C2)cc1 (stereo not drawn),> 51.8 µg/mL
15,CC1CCCC(NC(=O)CSc2ncccn2)C1C (stereo not drawn),> 41.9 µg/mL
16,COc1ccccc1-n1c(-c2ccccc2)nc2ccccc2c1=O,> 49.3 µg/mL
17,CN(C)c1ccc(/C=C/C(=O)c2ccc3c(c2)OCO3)cc1,2.9 µg/mL

row,Compound,solubility kinetic
1,CC1=C([N+](=O)[O-])C(c2ccc(Cl)cc2)NC(=O)N1C (stereo not drawn),30.4 µg/mL
2,CN(CC(=O)NCCc1ccc(S(N)(=O)=O)cc1)CC(=O)Nc1ccc(Cl)cc1,> 65.8 µg/mL
3,COc1ccc(C(=O)NCCCNC(=O)c2cnccn2)cc1,42.8 µg/mL
4,CCn1cc(C(C)NC(=O)Nc2ccc3c(c2)OCO3)c(C)n1 (stereo not drawn),> 47.5 µg/mL
5,Cl.OC1(C#CCN2CCCC2)CCCCC1,34.2 µg/mL
6,COc1ccc2nc(NC(=O)C34CC5CC(CC(NC(C)=O)(C5)C3)C4)sc2c1,41.2 µg/mL
7,Cc1ccc2cc(/C=N/NC(=O)CN3CCCCC3)c(Cl)nc2c1,> 51.7 µg/mL
8,COc1ccc(/C=C/C(=O)OC(C)CN2CCCCC2)cc1.Cl (stereo not drawn),49.4 µg/mL
9,COc1ccc(/C=C(\C#N)C(=O)Nc2cccc(C)n2)cc1,0.4 µg/mL
10,O=C(c1cc(-c2cccc(Cl)c2)on1)N1CCCCCC1,14 µg/mL
11,COc1ccc(Nc2ncnc3sc(C)cc23)cc1.Cl,14.8 µg/mL
12,Cc1ccc(C)c(NC(=O)C2CC3CCC2C3)c1 (stereo not drawn),10.6 µg/mL
13,COc1ccc2ccccc2c1CNCCc1ccccc1.Cl,42 µg/mL
14,CN(Cc1cccc(Cl)c1)C(=O)C1CSC2(C)CCC(=O)N12 (stereo not drawn),> 50.8 µg/mL
15,COc1cccc(/C=C/C(=O)NCc2ccc(S(N)(=O)=O)cc2)c1,12.7 µg/mL
16,CC(C)CCNC(=O)C(=O)Nc1cc2c3c(c1)CC(=O)N3CCC2,28.5 µg/mL

# Second part, the compound after the results:
row,solubility kinetic,Compound
1,> 47.8 µg/mL,COc1ccc(S(=O)(=O)N2CC(=O)Nc3ccccc32)cc1
2,6.3 µg/mL,O=C(c1cccc([N+](=O)[O-])c1)c1ccc2c(c1)C(=O)NC2=O
3,> 48.7 µg/mL,COc1ccc(C(=O)NCC(=O)N2CCc3ccccc3C2)cc1
4,12.6 µg/mL,COc1ccc(Nc2cc(C)c3ccccc3n2)cc1
5,> 47.6 µg/mL,O=C(O)CC(c1ccc(F)cc1F)N1Cc2ccccc2C1=O (stereo not drawn)
6,1.2 µg/mL,N#Cc1c(N)n(-c2ccc(O)cc2)c2nc3ccccc3nc12
7,10.1 µg/mL,c1ccc(-c2nc3ccccn3c2-c2ccccc2)cc1
8,1.7 µg/mL,Oc1ccc(-c2cnc(-c3ccc(O)cc3)nc2)cc1
9,33.7 µg/mL,Fc1cccc(CNC2CCN(CCc3ccccc3)CC2)c1
10,6.4 µg/mL,O=C(COC(=O)CCC(=O)c1ccc(Cl)cc1)NCc1ccc(F)cc1
11,14.1 µg/mL,O=C(COC(=O)c1ccco1)NCc1ccc(Cl)cc1Cl
12,9.2 µg/mL,O=C(NCCCc1ccccc1)c1ccc([N+](=O)[O-])cc1Cl
13,> 49.1 µg/mL,CN(C)c1nc2c(c(=O)[nH]c(=O)n2C)n1CCCc1ccccc1
14,17.2 µg/mL,O=C(/C=C/c1ccco1)NC(=S)Nc1ccccc1
15,49.1 µg/mL,O=C(CNS(=O)(=O)c1ccccc1)Nc1cccc([N+](=O)[O-])c1
16,19.9 µg/mL,CSc1cccc(NC(=O)C2(S(=O)(=O)c3ccc(C)cc3)CC2)c1
17,42.5 µg/mL,CCOC(=O)NC(=O)CSc1ccc2ccccc2n1
18,44.9 µg/mL,O=C(Cc1ccccc1F)Nc1ccc(S(=O)(=O)N2CCCC2)cc1
19,> 53.2 µg/mL,CCN(C(=O)CSc1nnc(C)c(=O)[nH]1)c1cccc2ccccc12
20,> 35.3 µg/mL,COc1ccccc1NC(=O)C1CCOC1=O (stereo not drawn)
21,22.8 µg/mL,Cc1ccc(OCCCCN2CCc3ccccc3C2)cc1.Cl
22,11.2 µg/mL,COC(=O)CSc1ncnc2scc(-c3ccccc3)c12
23,> 53 µg/mL,CCCCNC(=O)c1ccc(CS(=O)(=O)Cc2ccccc2F)o1
24,> 46.3 µg/mL,O=C(CCCN1C(=O)c2ccccc2C1=O)Nc1ccccc1
25,29.9 µg/mL,O=C(Nc1ccc(CN2CCS(=O)(=O)CC2)cc1)c1ccc(F)cc1
